Results on one molecule are retold here after US20240293400A1, “NOVEL AZAINDOLE DERIVATIVES AS ANTIVIRAL AGENTS” (Centre National de la Recherche Scientifique, priority 2021, published 2024).

The test system of one test is ZIKV BeH8 strain. The settings on record: cited from earlier work.
The test system of test [1] is CHIKV virus, LR-OPY1 strain. Description: Antiviral activity against the Chikungunya virus in HeLa cells. The test is classed as cell-based. The settings on record: 24 h.
In test [2] the test system is DENV subtype 2 strain (DENV2). The test is described as follows: Antiviral activity against the dengue virus in HeLa cells. The format is cell-based. The settings on record: 72 h, DENV2, 3 days.

By IC50 is commonly meant the point on the concentration scale where inhibition reaches its midpoint.

With `Nc1nc(Nc2ccc3c(c2)CC[C@@H](N2CCCC2)CC3)nn1-c1cc2c(nn1)-c1ccccc1CCC2` [R428/Bemcentinib, Bemcentinib], the “concentrations of efficacy against the ZIKV virus described in the literature” value in the test on ZIKV BeH8 strain is 1 to 3 µM. Further, the IC50 in test [1] turned out to be 239 nM; in test [2], 488 nM.
